This series is described as follows: Dissolution test in 1 M chloride salt aqueous solutions. It counts as physicochemical. The conditions noted are these: potassium chloride, lithium chloride and ammonium chloride aqueous solution, room temperature.
Where [1] appears, read: 0.01 mmol added to 10 mL each of 1 M sodium chloride.

Turning to `O=C1c2ccccc2C(=O)c2c1cc(S(=O)(=O)[O-])c(O)c2O.[Na+]` [Alizarin Red S, reference compound], the “dissolution in aqueous salt solutions” value under setting [1] is on record as “did not dissolve”.

With `O=C(O)c1ccc2nc3cc(O)c(O)cc3nc2c1` [compound represented by formula (1a-1)], the “dissolution in aqueous salt solutions” value (0.05 mmol added to 10 mL each of 1 M sodium chloride) is “did not dissolve”.

With `O=C(O)c1ccc2c(c1)C(=O)c1c(O)ccc(O)c1C2=O` [compound represented by formula (2a-1)], the “dissolution in aqueous salt solutions” value under setting [1] is “did not dissolve”.

Values taken from patent US20240243319A1, “AQUEOUS ELECTROLYTE, SALTS USED THEREIN, AND REDOX FLOW BATTERY USING SAID AQUEOUS ELECTROLYTE” (MITSUBISHI CHEMICAL CORPORATION, priority 2021, published 2024).
